Values after ≈ are worked out from the molar mass of the structure shown. Like-named read-outs stand apart in the source and are kept apart here. Peptide text beside a SMILES is read from it.
Assays:
[1] = tested on: E. coli O157:H7; type: cell-based, Escherichia coli
Experimental: (§1) The MICs of active peptides were determined via the Broth microdilution assay according to the EUCAST guideline, which was performed in 96-well polystyrene flat bottom microtiter plates (BD Biosciences). Briefly, a single colony was inoculated into 5 mL LB medium and grown to the end-exponential growth phase in a shaking incubator at 37 °C. Cultures were subsequently diluted to an OD600 (optical density) of 0.002 ([…]) in fresh LB medium. One hundred microliters of LB medium with different concentration of peptides ranging from 100 to 0.75 µg/mL were serially diluted to the sterile 96-well plate (at least three wells in each plate). Afterwards, 100 µL of the diluted bacteria were pipetted into 96-well plates containing different concentration of peptides. In each plate, the grown bacteria with the maximum concentration of carrier and medium were considered as positive and negative controls, respectively. Thereafter, 96-well plates were statically incubated overnight at 37 °C to allow bacterial growth. OD was measured at 590 nm for 1 s using a multipurpose ultraviolet–visible plate reader, and the absorbance of the growth bacteria was measured using a Perkin Elmer spectrophotometer (1420 Multilabel Counter Victor 3).

[2] = tested on: E. coli O157; type: cell-based, Escherichia coli; details: HPLC-purified peptide
Source text: In order to investigate whether APR redundancy does result in proteostatic collapse, we selected resynthesized and high-performance liquid chromatography (HPLC)-purified four positive peptides from the screen, P2, P5, P14, and P105, as well as three negative peptides, P3, P4, and P11, and confirmed their MIC and minimum bactericidal concentration (MBC) values (Table 1). […] These IBs, which are also called large polar aggregates, could be stained with pentameric formyl thiophene acetic acid (pFTAA, Fig. 1j and supplementary Fig. 3), an extensively characterized amyloid-specific dye[20]–[22], which specifically binds to amyloid-like aggregates as well as disease-associated protein IBs[22]. This IB-staining pattern could be observed for all bactericidal peptides, but not for any of the other peptides, although some other pFTAA-positive structures could be discerned (Supplementary Fig. 3). We confirmed the cross-β-structure content of IB using thioflavin-T staining and correlative atomic force microscopy nanoimaging and Fourier transform infrared spectroscopy (Supplementary Note 2 and Supplementary Fig. 4).

[3] = tested on: E. coli K-12 BW25113; type: cell-based, Escherichia coli
Experimental: (§2) If the bactericidal effect of P2 is indeed mediated by a loss of protein homeostasis, the cellular chaperone machinery would be expected to counteract or limit the effect of the peptide. […] To ensure that this effect was not due to the reduced overall viability of the dnaK deletion strain, we also tested the MIC value at 30 °C and obtained the same result (MIC = 6 μg/mL). This confirms that the direct inhibition of chaperones and proteases is not the principal mechanism of action of P2. […] The deletion strains with the strongest effect largely matched those found in the IBs by MS, including those of the cotranslationally acting chaperones TF (tig), dnaK (Hsp70 family), and its cochaperone dnaJ, as well as the small Hsps hchA (Hsp31), hslO (Hsp33), and ipbA (α-crystallin family). The disaggregase clpB and the aggregation-controlling protease lon also had strong effects.
as §1
Knockout chaperon strains were purchased from Dharmacon E. coli Keio knockout collection, which contains a set of single-gene deletion mutants for chaperone E. coli K-12 genes. Each deleted gene has been replaced with a kanamycin (30 μg/ mL) resistance cassette.

[4] = tested on: E. coli BL21; type: cell-based, Escherichia coli
Experimental: as §2, §1
Chaperone co-expression plasmids were purchased from Takara set (catalog# 3340), which consists of five different plasmids that contain chaperone plasmids developed by HSP Research Institute Inc. Plasmids were transformed into competent E. coli BL21. The co-expression chaperone strains are chloramphenicol selective of chaperone plasmid (20 μg/mL), and chaperone inducer depending on the chaperone plasmid used. pG-KJE8 (DnaK-dnaJ-grpE araB groES-groEL) induced by L-arabinose (0.5 mg/mL), tetracycline (1–5 ng/mL), pGro7 (groES-groEL) induced by L-arabinose (0.5 mg/mL), pKJE7 (dnaK-dnaJ-grpE) induced by L-arabinose (0.5 mg/mL), pG-Tf2 (groES-groEL-tig) induced by tetracycline (1–5 ng/mL), and pTf16 (tig) induced by L-arabinose (0.5 mg/mL).

[5] = tested on: human erythrocytes; assay: In vitro hemolytic activity test; type: cell-based; details: 1 h 37 °C
Experimental: The hemolytic activities of peptides were determined by hemolysis against human erythrocytes. Pooled fresh blood was obtained from healthy volunteers (Red Cross Flanders) and erythrocytes were collected by centrifugation 1,000 × g for 5 min (anticoagulated by EDTAK). The pellet was washed three times with phosphate-buffered saline (PBS) and was diluted to a concentration of 8% in PBS. One hundred microliters of 8% red blood cells solution was mixed with 100 µL of serial dilutions of peptides in PBS buffer in 96-well plates (BD Biosciences). The reaction mixtures were incubated for 1 h at 37 °C. Thereupon, the plate was centrifuged for 10 min at 1,000 × g and 100 µL of supernatant was transferred to a sterilized 96-well plate (BD Biosciences, flat bottom). The release of hemoglobin was determined by measuring the absorbance of the supernatant at 405 nm. […] Erythrocytes in 1% Triton and maximum used concentration of vehicle were used as the control of 100 and 0% hemolysis, respectively.

[6] = tested on: Swiss mice; assay: In vivo toxicity test; parameters: species or system mouse; details: Swiss female mice, 30 mg/kg IP once a day for 18 days (Supplementary Note 8)
Experimental: The procedures used in the assays were approved by the local Animal Ethics Committee and conform to international standards of animal welfare (Approval P067/2015 of the Ethical Committee of KULeuven). A safe concentration of peptides of […] was used for this experiment.
Briefly, 5–6-week-old Swiss females were divided into […] (six animals per group) and administered 30 mg/kg of P2 (group A) or vehicle (physiological water pH 7.5) (group B) once a day for 18 days via IP injection. During the treatment period, the clinical, physiological, and behavioral parameters, including body weight, food and water consumption, body condition score, home cage activity, and locomotion were constantly monitored and recorded.
Three days after the last administration, animals were anesthetized and blood was collected using a standard retro-orbital puncture from each animal. Next, the mice sacrificed and underwent complete necropsy with gross examination and organ weights. The organs (heart, liver, spleen, kidney, bone marrow, brain, lung) were sampled and immersed in fixative in 4% paraformaldehyde. […] Five-micrometer-thick sections taken from these blocks (Thermo Scientific Microm HM355S microtome) were then stained with hematoxylin and eosin (Leica ST5010 Autostainer XL) and evaluated under a Leica DM 2500 light microscope by a board-certified veterinary pathologist. […]

Compound: CC(C)C[C@H](NC(=O)CNC(=O)[C@H](CCCNC(=N)N)NC(=O)[C@@H]1CCCN1C(=O)[C@H](CCCNC(=N)N)NC(=O)[C@H](CCCNC(=N)N)NC(=O)[C@@H](NC(=O)[C@H](CC(C)C)NC(=O)[C@H](C)NC(=O)[C@H](CC(C)C)NC(=O)CNC(=O)[C@H](CC(C)C)NC(=O)CNC(=O)[C@@H](N)CCCNC(=N)N)C(C)C)C(=O)NCC(=O)N[C@@H](CC(C)C)C(=O)N[C@@H](C)C(=O)N[C@@H](CC(C)C)C(=O)N[C@H](C(=O)N[C@@H](CCCNC(=N)N)C(=O)N[C@@H](CCCNC(=N)N)C(=O)O)C(C)C [P2] (H-RGLGLALVRRPRGLGLALVRR-OH)
- MIC ([1]; E. coli O157(:H7), HPLC-purified peptide, broth microdilution (EUCAST), LB, overnight 37 °C, OD 590 nm): 6 µg/mL (≈ 2.61 µM)
- IC50, concentration at which bacterial growth is 50% inhibited ([1]; E. coli O157:H7): 1.5 µg/mL (≈ 0.652 µM)
- MBC [2]: 6 µg/mL (≈ 2.61 µM)
- MIC ([3]; KEIO WT): 12 µg/mL (≈ 5.22 µM)
- MIC ([3]; dnaK deletion strain, tested at 30 °C): 6 µg/mL (≈ 2.61 µM)
- MIC ([3]; gene deletion ∆ clpA): 12 µg/mL (≈ 5.22 µM)
- MIC ([3]; gene deletion ∆ clpB): 12 µg/mL (≈ 5.22 µM)
- MIC ([3]; gene deletion ∆ clpP): 12 µg/mL (≈ 5.22 µM)
- MIC ([3]; gene deletion ∆ clpS): 12 µg/mL (≈ 5.22 µM)
- MIC ([3]; gene deletion ∆ clpX): 12 µg/mL (≈ 5.22 µM)
- MIC ([3]; gene deletion ∆ dnaJ): 12 µg/mL (≈ 5.22 µM)
- MIC ([3]; gene deletion ∆ dnaK): 6 µg/mL (≈ 2.61 µM)
- MIC ([3]; gene deletion ∆ groL): 12 µg/mL (≈ 5.22 µM)
- MIC ([3]; gene deletion ∆ hchA): 6 µg/mL (≈ 2.61 µM)
- MIC ([3]; gene deletion ∆ hslO): 12 µg/mL (≈ 5.22 µM)
- MIC ([3]; gene deletion ∆ htpG): 12 µg/mL (≈ 5.22 µM)
- MIC ([3]; gene deletion ∆ ibpA): 12 µg/mL (≈ 5.22 µM)
- MIC ([3]; gene deletion ∆ ibpB): 12 µg/mL (≈ 5.22 µM)
- MIC ([3]; gene deletion ∆ lon): 12 µg/mL (≈ 5.22 µM)
- MIC ([3]; gene deletion ∆ sulA): 12 µg/mL (≈ 5.22 µM)
- MIC ([3]; gene deletion ∆ tig): 12 µg/mL (≈ 5.22 µM)
- MIC ([4]; BL21, plasmid pG-KJE8, overexpressed dnaK-dnaJ-grpE groES-groEL): 25 µg/mL (≈ 10.9 µM)
- MIC ([4]; BL21, plasmid pG-Tf2, overexpressed groES-groEL-tig): 25 µg/mL (≈ 10.9 µM)
- MIC ([4]; BL21, plasmid pGro7, overexpressed groES-groEL): 25 µg/mL (≈ 10.9 µM)
- MIC ([4]; BL21, plasmid pKJE7, overexpressed dnaK-dnaJ-grpE): 25 µg/mL (≈ 10.9 µM)
- MIC ([4]; BL21, plasmid pTf16, overexpressed tig): 25 µg/mL (≈ 10.9 µM)
- MIC ([4]; BL21 wt, no plasmid): 25 µg/mL (≈ 10.9 µM)
- LC50, concentration inducing 50% lysis of human erythrocytes [5]: 1,100 μg/mL
- tolerability in mice [6]: tolerated P2 treatments well
